Laboratory results reported in article PMC9948168, “Vanillin-Based Indolin-2-one Derivative Bearing a Pyridyl Moiety as a Promising Anti-Breast Cancer Agent via Anti-Estrogenic Activity” (ACS Omega, 2023).

Tests used:
Assay in all cases: NCI-60 one-dose screening
Type in all cases: cell-based
MCF7 = settings: Homo sapiens, MCF7, 10 μM; MCF7, Breast Cancer; read-out: GI (%)
MOLT-4 = settings: Homo sapiens, MOLT-4, Leukemias, read-out: GI (%)
SNB-19 = settings: Homo sapiens, SNB-19, CNS Cancer, read-out: GI (%)
OVCAR-4 = settings: Homo sapiens, OVCAR-4, 10 μM; OVCAR-4, Ovarian Cancer; read-out: GI (%)
CAKI-1 = settings: Homo sapiens, CAKI-1, Renal Cancer, read-out: GI (%)
SK-OV-3 = settings: Homo sapiens, SK-OV-3, Ovarian Cancer, read-out: GI (%)
K-562 = settings: Homo sapiens, K562, K-562, Leukemias, read-out: GI (%)
OVCAR-5 = settings: Homo sapiens, OVCAR-5, Ovarian Cancer, read-out: GI (%)
M14 = settings: Homo sapiens, M14, Melanoma, read-out: GI (%)
UACC-257 = settings: Homo sapiens, UACC-257, Melanoma, read-out: GI (%)
COLO 205 = settings: Homo sapiens, COLO 205, Colon Cancer, read-out: GI (%)
SW-620 = settings: Homo sapiens, SW-620, Colon Cancer, read-out: GI (%)
ACHN = settings: Homo sapiens, Renal Cancer, read-out: GI (%)
TK-10 = settings: Homo sapiens, TK-10, Renal Cancer, read-out: GI (%)
HCT-15 = settings: Homo sapiens, HCT-15, Colon Cancer, read-out: GI (%)
NCI-H322M = settings: Homo sapiens, Non-Small Cell Lung Cancer, read-out: GI (%)
BT-549 = settings: Homo sapiens, BT-549, Breast Cancer, read-out: GI (%)
A498 = settings: Homo sapiens, A498, Renal Cancer, read-out: GI (%)
A549/ATCC = settings: Homo sapiens, Non-Small Cell Lung Cancer, read-out: GI (%)
SK-MEL-2 = settings: Homo sapiens, SK-MEL-2, Melanoma, read-out: GI (%)
NCI-H226 = settings: Homo sapiens, NCI-H226, Non-Small Cell Lung Cancer, read-out: GI (%)
HL-60(TB) = settings: Homo sapiens, Leukemias, read-out: GI (%)
RXF 393 = settings: Homo sapiens, RXF 393, Renal Cancer, read-out: GI (%)
CCRF-CEM = settings: Homo sapiens, Leukemias, read-out: GI (%)
MDA-MB-435 = settings: Homo sapiens, MDA-MB-435, Melanoma, read-out: GI (%)

SMILES | inhibition at 10 µM (MCF7) [%] | inhibition at 10 µM (MOLT-4) [%] | inhibition at 10 µM (SNB-19) [%] | inhibition at 10 µM (OVCAR-4) [%] | inhibition at 10 µM (CAKI-1) [%] | inhibition at 10 µM (SK-OV-3) [%] | inhibition at 10 µM (K-562) [%] | inhibition at 10 µM (OVCAR-5) [%] | inhibition at 10 µM (M14) [%] | inhibition at 10 µM (UACC-257) [%] | inhibition at 10 µM (COLO 205) [%] | inhibition at 10 µM (SW-620) [%] | inhibition at 10 µM (ACHN) [%] | inhibition at 10 µM (TK-10) [%] | inhibition at 10 µM (HCT-15) [%] | inhibition at 10 µM (NCI-H322M) [%] | inhibition at 10 µM (BT-549) [%] | inhibition at 10 µM (A498) [%] | inhibition at 10 µM (A549/ATCC) [%] | inhibition at 10 µM (SK-MEL-2) [%] | other results
COc1cc(C=C2C(=O)Nc3ccccc32)ccc1O (mixture of isomers) [5a] | 44.8 | 10.4 | 6.94 | 18.2 | 36 | 5.29 | 9.79 | -2.51 | 23.5 | 11.3 | -13.8 | -0.49 | 22.8 | -90.5 | 25.7 | 19.5 | 25.6 | 2.96 | 3.48 | 7.03 | inhibition at 10 µM (NCI-H226): -2.09%; inhibition at 10 µM (HL-60(TB)): 15.1%; inhibition at 10 µM (RXF 393): -6.54%; inhibition at 10 µM (CCRF-CEM): 10.2%; inhibition at 10 µM (MDA-MB-435): 18.5%
COc1cc(C=C2C(=O)Nc3ccc(Cl)cc32)ccc1O (mixture of isomers) [5b] | 57.5 | 23.1 | 20.7 | 18.8 | 41 | -6.08 | 28.1 | 0.41 | 18.4 | 13.5 | -11.7 | -3.74 | 26 | -56.3 | 25.2 | 14.1 | 25 | 25.6 | 3.56 | 6.25 | inhibition at 10 µM (NCI-H226): 2.25%; inhibition at 10 µM (HL-60(TB)): 23.1%; inhibition at 10 µM (RXF 393): -7.81%; inhibition at 10 µM (CCRF-CEM): 22.6%; inhibition at 10 µM (MDA-MB-435): 19.4%
COc1cc(C=C2C(=O)Nc3ccc(Cl)cc32)ccc1OCc1ccc(Cl)cc1 (mixture of isomers) [6g] | 54.4 | 8.95 | 12.8 | 74 to 97 | 24.2 | 2.96 | 10.4 | 3.04 | 2.22 | -8.01 | -7.05 | 23 | 71.9 | -56 | 13.9 | 22.9 | 4.38 | 13.5 | 7.48 | -8.12 | inhibition at 10 µM (NCI-H226): 17.1%; inhibition at 10 µM (HL-60(TB)): -1.67%; inhibition at 10 µM (RXF 393): 9.18%; inhibition at 10 µM (CCRF-CEM): 18.1%; inhibition at 10 µM (MDA-MB-435): -1.14%
COc1cc(C=C2C(=O)Nc3ccc(Cl)cc32)ccc1OCc1ccc(F)cc1 (mixture of isomers) [6h] | 51 | 23.3 | 8.68 | 74 to 97 | 16.7 | -9.69 | 11.4 | 3.31 | 3.61 | -1.98 | 6.56 | 40.3 | 47.3 | -29 | 13.6 | 10.7 | -1.21 | 6.57 | 15.1 | -7.21 | inhibition at 10 µM (NCI-H226): 4.31%; inhibition at 10 µM (HL-60(TB)): -2.34%; inhibition at 10 µM (RXF 393): 6.55%; inhibition at 10 µM (CCRF-CEM): 30.5%; inhibition at 10 µM (MDA-MB-435): 8.73%
COc1cc(/C=C2/C(=O)Nc3cc(Cl)ccc32)ccc1O [5c] | 54.4 | 27.9 | 24.6 | 25.4 | 31.6 | 2.42 | 19.6 | -7.45 | 21.2 | 2.41 | -7.08 | 3.92 | 23.6 | -60.3 | 34.8 | 15.7 | 23.8 | 11.1 | 5.44 | 7.35 | inhibition at 10 µM (NCI-H226): 10%; inhibition at 10 µM (HL-60(TB)): 13.9%; inhibition at 10 µM (RXF 393): 6.84%; inhibition at 10 µM (CCRF-CEM): 17%; inhibition at 10 µM (MDA-MB-435): 17.8%
COc1cc(/C=C2/C(=O)Nc3ccc(Cl)cc32)ccc1OCc1ccccc1 [6f] | 19.2 | 3.2 | 3.8 | -6.85 | 7.2 | -9.53 | -8.73 | -0.26 | 0.98 | -3.74 | -7.79 | 4.03 | 3.68 | -15.1 | 4.2 | 2.56 | -5.93 | -2.34 | -0.72 | -0.03 | inhibition at 10 µM (NCI-H226): 1.24%; inhibition at 10 µM (HL-60(TB)): 0.49%; inhibition at 10 µM (RXF 393): -11.6%; inhibition at 10 µM (CCRF-CEM): 1.07%; inhibition at 10 µM (MDA-MB-435): -1.21%
COc1ccc(COc2ccc(/C=C3/C(=O)Nc4ccc(Cl)cc43)cc2OC)cc1 [6i] | 22.3 | 4.03 | 2.61 | -0.39 | 15.4 | -8.16 | 6.52 | 1.66 | 0.06 | -2.09 | -10.1 | 6.24 | 5.13 | -18.4 | 3.59 | 7.01 | -13.3 | -6.49 | -1.42 | -5.26 | inhibition at 10 µM (NCI-H226): 3.61%; inhibition at 10 µM (HL-60(TB)): 0.37%; inhibition at 10 µM (RXF 393): -7.98%; inhibition at 10 µM (CCRF-CEM): 1.43%; inhibition at 10 µM (MDA-MB-435): -5.33%
